Laboratory results: patent US20260325605A1, “INHIBITORS” (Zealand Pharma A/S, priority 2022, published 2026)
Like-named read-outs stand apart in the source and are kept apart here.

Assays:
[1] = system: T-cell activation in human whole blood; assay: Example 5: IFN-g, IL-2 and IL-17A release in thapsigargin stimulated human whole blood; format: cell-based; details: 24 Hr, at least 2 replicate experiments
Text: Human whole blood was used to assess the potency of Kv1.3 inhibitor peptides on T-cell activation as determined by release of the cytokines IFN-g, IL-2 and IL-17A after stimulation with thapsigargin. Addition of thapsigargin activates a signalling cascade resulting in T cell proliferation and cytokine production, in which the Kv1.3 ion channel plays a key role. Activity of Kv1.3 inhibitors in human primary T cells can thus be measured in this experimental system.
Human whole blood was obtained from healthy blood donors and was collected after informed consent using Sodium Heparin blood sampling tubes (Becton, Dickinson and Company (BD), Cat #367876). Test peptides were diluted to 4× final testing concentrations in assay buffer (Dulbecco's Modified Eagle's medium (DMEM) with high glucose and GlutaMAX (3.97 mM L-alanine-L-glutamine) (Gibco Cat #61965026) supplemented with 25 mM HEPES buffer, 1 mM Sodium Pyruvate, 100 units/ml Penicillin, 100 μg/ml Streptomycin and 0.05% Casein from bovine milk (Sigma-Aldrich Cat #C4765)) and 25 μl was added to wells of a 96 well tissue culture plate. Then 50 μl human whole blood was added and incubated for minimum 5 minutes at room temperature to allow compound binding. Then 25 μl of 40 μM thapsigargin diluted in assay buffer was added to all wells of the assay plates to activate the cells, followed by incubation for 24 Hr at 37° C./5% CO2 in a humidified box. The assay plates were centrifuged for 10 min at 300 g at 4° C. and the supernatants were transferred to new plates. The concentrations of IFN-g, IL-2 and IL-17A released to the supernatants were measured using a tri-plex human cytokine detection kit (MSD Human U-Plex IFN-g, IL-2 and IL-17A kit; Meso Scale Discovery Cat #K15067L-2) and all three cytokines were measured using a MSD MESO QuickPlex SQ 120 instrument as described by the manufacturer (Meso Scale Discovery, Rockville, Maryland, USA).
To determine the potency of inhibition for the compounds, the cytokine concentration data were fitted using a three parameter logistic dose response model based on the formula Y=Bottom+(Top−Bottom)/(1+IC50/X), where Y is measured cytokine concentrations, X is compound concentrations and Top, bottom and IC50 are parameters fitted using the software Graphpad Prism version 5.04. The IC50 value calculated from the concentration response curve represents the compound concentration that gives an inhibition response halfway between the basal (Bottom) response and the maximal (Top) response.
All values are derived from at least 2 replicate experiments. All of the tested Kv1.3 blockers were able to inhibit cytokine production from human T cells present in human whole blood that was stimulated with thapsigargin.

[2] = biological target: T1, Kv1.2 (Homo sapiens, UniProt P16389); assay: Patch clamp assay (QPatch), Kv1.2; format: cell-based
T1 construct: expressed in transfected cells
Method: Selectivity of Kv1.3 inhibitor peptides for Kv1.3 over other potassium ion channels (Kv1.1, Kv1.2 and Kv1.6) was determined using patch clamp assay.
Chinese Hamster Ovary (CHO) cell lines stably expressing exogenous human α-subunits of each potassium ion channel were grown and passaged under standard culture conditions.
The automated, chip-based planar patch clamp device QPatch® was used to quantitate the ionic currents. All recordings were made in the conventional whole-cell configuration after establishment of gigaohm seals. […] During experiments 0.1% (v/v) BSA was included as a vehicle in all external recording solutions. Currents were elicited from a holding potential of −80 mV using a voltage protocol, which shifted the voltage to 30 mV for 500 ms every 15 s.
Concentration-response relationships were established by cumulatively applying seven escalating concentrations of test sample to an individual cell with a recording period of 2 min per compound application.
The efficacy was determined as the mean charge for the last three sweeps at the end of each concentration application period from the cursor positions. The percent inhibition for each test dose application period was calculated as the reduction in mean cursor value (charge) relative to the cursor value measured at the end of the vehicle period and used to calculate the IC50 from the concentration response curve.

[3] = system: KLH-induced DTH ear swelling in rats; assay: Example 10: Maximal effective dose in KLH-induced DTH model; format: in vivo, rat (Lewis)
Method: Healthy male Lewis rats aged 8-9 weeks were immunized on day 0 with 200 μL keyhole limpet hemocyanin (KLH) (from Sigma, cat.no. H7017) (4 mg/mL) emulsified in complete Freund's adjuvant (CFA) (Difco, cat.no. 263810) subcutaneously (SC) at the base of the tail.
To elicit a KLH-specific T cell-mediated local inflammation, rats were challenged intradermally at indicated timepoints (days 7, 9, 11 or 13 post-immunisation) with 40 μL KLH/NaCl 0.9% (2 mg/mL) in the left ear. Ear edemas were measured after 24-48 hrs and the right ear that was left untreated served as control. A schematic overview of the protocol is depicted in FIG. 1. […]
This study was conducted as described in example 8 with the difference that the rats were only challenged intradermally at days 7 or 11 post-immunisation (i.e. day 1 and day 5 after treatment) with 40 μL KLH/NaCl 0.9% (2 mg/mL) in the left ear. A schematic overview of the protocol is depicted in FIG. 5.
The doses of Kv1.3 inhibitor treatment able to reduce the DTH ear swelling response was investigated by comparing the response in rats (n=8/group) treated with vehicle to that of rats treated with different doses of peptide 100. Vehicle or peptide 100 dissolved in vehicle was administered SC (2 mL/kg) on day 6 post-immunisation. The test dose of Kv1.3 inhibitor was 10, 100, 300 or 700 nmol/kg. Test vehicle was 10 mM phosphate, 0.8% w/v NaCl, 0.05% w/v polysorbate20, pH 6.
As readout of efficacy, the thickness of the induced ear 24 hrs and 48 hrs after respective ear challenge was measured and compared to vehicle control. Ear thickness 24 hrs after challenge is shown in Table 13 and FIG. 6 and ear thickness 48 hrs after challenge is shown in Table 14 and FIG. 7.

[4] = Example 6: Pharmacokinetic characterisation after s.c. administration; format: in vivo, rat (Sprague Dawley or Wistar); details: rat, 70 nmol/kg
In short: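 Male Sprague Dawley or Wistar rats (about 250-350 g) received a single s.c. dose of 70 nmol/kg in 10 mM phosphate, 0.8% NaCl, 0.05% Polysorbate 20, pH 6.0. Plasma sampled from 15 min to 4 h, analysed by SPE and LC-MS/MS; non-compartmental AUCinf, Cmax and Tmax from mean concentrations.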

T1 sequence (P16389 whole entry): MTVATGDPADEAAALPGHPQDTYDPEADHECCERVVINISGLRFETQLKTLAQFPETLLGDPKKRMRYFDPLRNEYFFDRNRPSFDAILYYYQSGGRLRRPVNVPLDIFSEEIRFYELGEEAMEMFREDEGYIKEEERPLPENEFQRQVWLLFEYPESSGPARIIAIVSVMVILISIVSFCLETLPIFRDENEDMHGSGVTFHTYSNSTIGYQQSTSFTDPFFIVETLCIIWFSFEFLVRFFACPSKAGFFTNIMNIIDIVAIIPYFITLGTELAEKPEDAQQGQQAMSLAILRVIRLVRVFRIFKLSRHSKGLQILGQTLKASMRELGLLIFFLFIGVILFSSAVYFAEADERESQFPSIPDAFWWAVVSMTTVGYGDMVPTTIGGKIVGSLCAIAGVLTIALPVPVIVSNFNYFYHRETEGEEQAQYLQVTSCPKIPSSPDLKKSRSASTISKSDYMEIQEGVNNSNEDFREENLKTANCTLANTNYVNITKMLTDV

H-P[Nle]E[Nle]RC(1)SASVEC(2)KQKC(3)LAAIGSIFGKC(1)[Nle]NKKC(2)KC(3)YPR-OH [Peptide 100]
IC50 ([1]; read-out: Average IC50, IFN-g): 0.11 nM
IC50 ([1]; read-out: Average IC50, IL-2): 0.095 nM
IC50 ([1]; read-out: Average IC50, IL-17A): 0.15 nM
IC50 ([2]; QPatch, CHO cells stably expressing human Kv1.2, read-out: Potency IC50, Kv1.2): 1120 nM
Selectivity Kv1.2/Kv1.3 ([2]; ratio of IC50 Kv1.2/Kv1.3): 3384
Mean ear thickness of KLH-induced ear ([3]; 10 nmol/kg s.c., challenge day 11, 24 hrs post-challenge, vehicle 0.848, p=0.0495): 0.807±0.025 mm
Mean ear thickness of KLH-induced ear ([3]; 10 nmol/kg s.c., challenge day 11, 48 hrs post-challenge, vehicle 0.819, p=0.0009): 0.761±0.025 mm
Mean ear thickness of KLH-induced ear ([3]; 100 nmol/kg s.c., challenge day 11, 24 hrs post-challenge, vehicle 0.848, p=0.0015): 0.777±0.019 mm
Mean ear thickness of KLH-induced ear ([3]; 100 nmol/kg s.c., challenge day 11, 48 hrs post-challenge, vehicle 0.819, p<0.0001): 0.713±0.034 mm
Mean ear thickness of KLH-induced ear ([3]; 300 nmol/kg s.c., challenge day 11, 24 hrs post-challenge, vehicle 0.848, p=0.0005): 0.772±0.009 mm
Mean ear thickness of KLH-induced ear ([3]; 300 nmol/kg s.c., challenge day 11, 48 hrs post-challenge, vehicle 0.819, p<0.0001): 0.684±0.016 mm
Mean ear thickness of KLH-induced ear ([3]; 700 nmol/kg s.c., challenge day 11, 24 hrs post-challenge, vehicle 0.848, p=0.0007): 0.771±0.018 mm
Mean ear thickness of KLH-induced ear ([3]; 700 nmol/kg s.c., challenge day 11, 48 hrs post-challenge, vehicle 0.819, p<0.0001): 0.671±0.011 mm
Mean ear thickness of KLH-induced ear ([3]; 24 hrs post-challenge, day 2 post-treatment, 100 nmol/kg SC): 0.704 mm
Mean ear thickness of KLH-induced ear ([3]; 24 hrs post-challenge, day 6 post-treatment, 10 nmol/kg SC): 0.807 mm
Mean ear thickness of KLH-induced ear ([3]; 24 hrs post-challenge, day 6 post-treatment, 100 nmol/kg SC): 0.777 mm
Mean ear thickness of KLH-induced ear ([3]; 24 hrs post-challenge, day 6 post-treatment, 300 nmol/kg SC): 0.772 mm
Mean ear thickness of KLH-induced ear ([3]; 24 hrs post-challenge, day 6 post-treatment, 700 nmol/kg SC): 0.771 mm
Mean ear thickness of KLH-induced ear ([3]; 48 hrs post-challenge, day 3 post-treatment, 100 nmol/kg SC): 0.652 mm
Mean ear thickness of KLH-induced ear ([3]; 48 hrs post-challenge, day 7 post-treatment, 10 nmol/kg SC): 0.761 mm
Mean ear thickness of KLH-induced ear ([3]; 48 hrs post-challenge, day 7 post-treatment, 100 nmol/kg SC): 0.713 mm
Mean ear thickness of KLH-induced ear ([3]; 48 hrs post-challenge, day 7 post-treatment, 300 nmol/kg SC): 0.684 mm
Mean ear thickness of KLH-induced ear ([3]; 48 hrs post-challenge, day 7 post-treatment, 700 nmol/kg SC): 0.671 mm
dose with which a maximal effect is obtained ([3]; KLH-induced DTH model, s.c.): 300 nmol/kg
Mean ear thickness of KLH-induced ear ([3]; s.c. day 6, dose not given, challenge day 7, 24 hrs post-challenge, vehicle 0.721, p=0.1216): 0.704±0.018 mm
Mean ear thickness of KLH-induced ear ([3]; s.c. day 6, dose not given, challenge day 7, 48 hrs post-challenge, vehicle 0.694, p=0.0008): 0.652±0.026 mm
AUCINF ([4]; plasma): 0.112 µM·h
Cmax ([4]; plasma): 52.6 nM
T1/2 ([4]; plasma terminal elimination half-life): 1.04 h
